The values that follow come from PubChem BioAssay (NCI).

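The compound was tested at five concentrations on cells cultured in 96-well plates, with a 48-hour exposure period. GI50 = concentration required for 50% inhibition of growth. TGI marks complete inhibition of growth.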

Assay in all cases: DTP human tumour cell line panel, 48 h
The test system of assay [1] is CCRF-CEM leukemia.
For assay [2], the system named is MALME-3M melanoma.
Assay [3] relates to SK-MEL-2 melanoma.
Assay [4] has as its system SK-MEL-28 melanoma.
The subject of assay [5] is SNB-75 CNS.
Assay [6] concerns U251 CNS.
For assay [7], the system named is UACC-62 melanoma.
Assay [8] has as its system NCI/ADR-RES ovarian.
For assay [9], the system named is PC-3 prostate.
In assay [10] the test system is HS 578T breast.

With `N#C/C(=C\c1cc(OCc2ccccc2)c(OCc2ccccc2)cn1)C(N)=O`, the TGI in assay [1], in assay [2], in [3], in assay [4], in [5] and in assay [6] was above 100 µM each time. The molecule further registered a TGI in [7] above 100 µM.
`O=C1NC2=C(CCCCC/C2=N\O)C12CCCCCC2`: the TGI in [1], in assay [2], in assay [3], in assay [4], in assay [5] and in assay [6] was above 100 µM throughout. Moreover, in assay [7], the TGI is above 100 µM.
`C[C@]12Cc3cn[nH]c3C(=O)C1CC[C@@H]1C2CC[C@@]2(C)C1CC[C@@H]2O` (stereo partly specified): the TGI in assay [1], in [2], in [3], in assay [4], in [5] and in assay [6] was above 100 µM throughout. Moreover, the TGI in assay [7] is above 100 µM.
In the case of `CCCCCOc1ccc(/C=N/Nc2cc(C)nc3ccc(Cl)cc23)cc1`, the GI50 was 1.85 µM in assay [2]; 1.89 µM in assay [8]; 1.61 µM in [9]; 1.7 µM in [3]; 1.69 µM in assay [4]; 1.63 µM in assay [5]. Further, the GI50 in [6] is 1.7 µM; in [7], 1.68 µM. The TGI in [2] came out at 3.39 µM; in assay [8] it was 3.92 µM; in [9], 3.1 µM; in assay [3], 3.17 µM; in [4], 3.09 µM; in assay [5] it was 3.22 µM. The TGI in assay [6] was found to be 3.16 µM; in assay [7], 3.15 µM.
Turning to `O=[N+]([O-])c1ccc(Cl)c2c([N+](=O)[O-])cccc12`, the TGI in assay [1], in assay [2], in [9], in assay [3], in assay [4] and in assay [5] was above 10 µM in each case. In [7], this molecule displayed a TGI above 10 µM.
Consider `O=C1/C(=C\c2ccccc2)CN(C(=O)CCN2CCCCC2)C/C1=C/c1ccccc1`, for which the TGI in assay [1] came out at 0.866 µM; in assay [10], 5.87 µM; in assay [2], 5.44 µM; in assay [9] it was 3.25 µM; in [3], 4.44 µM; in assay [4], 5.69 µM. Further, the TGI in assay [5] worked out at 6.79 µM; in assay [6] it was 1.86 µM; in assay [7], 3.08 µM.
For the molecule `CCc1cccc(C)c1NC(=O)CCc1nc(=S)[nH][nH]1`, the TGI in assay [1], in assay [2], in assay [3], in assay [4], in assay [6] and in [7] was above 100 µM throughout.
For the molecule `Cc1ccc2c(c1)CN1c3ccc(C)cc3CN2C1c1ccccc1O`, the TGI is above 100 µM in assay [1]; above 100 µM in assay [2]; above 100 µM in assay [3]; above 100 µM in assay [4]; 9.08 µM in [5]; above 100 µM in assay [6]. Besides, the TGI in assay [7] is above 100 µM.
In the case of `CCN(CC)Cc1cc(Nc2nc(NC3CCC(N(C)C)CC3)c3ccccc3n2)ccc1OC` (stereo unspecified), the GI50 in assay [1] is 2.5 µM; in assay [10] it was 0.677 µM; in [2], 1.61 µM; in assay [9], 6.97 µM; in assay [3], 3.09 µM; in assay [4], 2.41 µM. In addition, the values for the GI50 in assay [5], in assay [6] and in [7] were 2.17 µM, 3.61 µM and 13.2 µM, respectively. Also, the TGI in assay [1] came out at 16.8 µM; in [10], 14.5 µM; in assay [2], 3.73 µM; in assay [9] it was 24.3 µM; in assay [3], 7.52 µM; in assay [4], 5.17 µM. The TGI in [5] was found to be 17.5 µM; in [6], 14.5 µM; in [7] it was 27.2 µM.
Take `FC(F)(F)Oc1cccc(-c2cc(NCCCCCCNc3cc(-c4cccc(OC(F)(F)F)c4)nc4ccc(N5CCCC5)cc34)c3cc(N4CCCC4)ccc3n2)c1`: the GI50 in [2] is 1.68 µM; in assay [8] it was 2.07 µM; in assay [9], 2.02 µM; in [3] it was 1.96 µM; in assay [4], 1.83 µM; in assay [5], 1.66 µM. Further, the GI50 in assay [6] was 2.11 µM; in assay [7], 1.77 µM. In addition, the total growth inhibition concentration (TGI) came to 3.1 µM in assay [2]; 4.5 µM in [8]; 4.42 µM in assay [9]; 3.63 µM in assay [3]; 3.3 µM in [4]; 3.16 µM in [5]. Also, the figures for the TGI in [6] and in assay [7] were 4.62 µM and 3.16 µM, respectively.
For the molecule `Cc1nc(N)nc(CCC(=O)Nc2cccc(C(F)(F)F)c2)c1-c1ccc(Cl)cc1`, the TGI in assay [1], in [2], in assay [3], in [4], in assay [5] and in assay [6] was above 100 µM throughout. Further, in assay [7], the TGI is above 100 µM.
Consider `N#CC(C(=O)C(=O)Nc1c(Cl)cccc1Cl)c1ccccc1` (stereo unspecified), for which the GI50 in assay [1], in assay [2], in assay [3], in [4], in [5] and in [6] was above 100 µM throughout. For the same molecule, the GI50 in [7] is above 100 µM. Also, the TGI in assay [1], in assay [2], in [3], in [4], in [5] and in assay [6] was above 100 µM throughout. In assay [7], this molecule returned a TGI above 100 µM.

As usually defined, the TGI is the concentration giving total growth inhibition. The low end stands for greater sensitivity of the cells, the high end for lower sensitivity of the cells. In general, GI50 refers to the concentration that inhibits growth by half.
